Experimental data taken from publication PMC3894639 (Pharmacogenetics and genomics, 2013).
Changes are numbered by the printed parent chain. Structures can show the parent of a compound that is named as a salt.

Assays:
[1] = test system: HEK293/FRT cells, empty vector; test: Uptake by HEK293/FRT cells with empty vector; type: cell-based, human
OATP1B1 reference = target: T1, OATP1B1 reference (Homo sapiens, UniProt Q9Y6L6); conditions: 20 nmol/l [3H]-ES, 5 min, 37°C
T1 sequence (Q9Y6L6 1-691): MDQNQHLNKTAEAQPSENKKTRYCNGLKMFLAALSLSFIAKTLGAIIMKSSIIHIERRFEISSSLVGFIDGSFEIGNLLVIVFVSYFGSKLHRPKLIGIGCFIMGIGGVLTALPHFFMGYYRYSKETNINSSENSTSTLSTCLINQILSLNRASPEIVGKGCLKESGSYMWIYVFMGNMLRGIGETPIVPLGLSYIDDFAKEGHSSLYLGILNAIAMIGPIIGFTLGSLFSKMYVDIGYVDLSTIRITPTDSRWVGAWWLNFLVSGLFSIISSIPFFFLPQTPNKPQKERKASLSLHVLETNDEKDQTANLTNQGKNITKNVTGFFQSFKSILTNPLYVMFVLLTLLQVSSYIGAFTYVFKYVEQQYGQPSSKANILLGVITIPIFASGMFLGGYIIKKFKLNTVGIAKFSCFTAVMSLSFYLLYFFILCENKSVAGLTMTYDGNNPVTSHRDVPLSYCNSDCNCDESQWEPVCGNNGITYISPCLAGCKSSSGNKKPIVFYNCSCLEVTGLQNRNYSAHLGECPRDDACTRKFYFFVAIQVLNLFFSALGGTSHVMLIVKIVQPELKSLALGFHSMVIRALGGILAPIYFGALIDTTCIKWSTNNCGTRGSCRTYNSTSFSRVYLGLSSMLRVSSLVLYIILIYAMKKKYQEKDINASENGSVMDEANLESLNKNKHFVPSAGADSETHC

OATP1B1*15 = target: T2, OATP1B1*15 (Homo sapiens, UniProt Q9Y6L6, N130D/V174A); conditions: 20 nmol/l [3H]-ES
T2 sequence (Q9Y6L6 1-691 N130D/V174A): T1 sequence (Q9Y6L6 1-691) with N130D, V174A

OATP1B1 T345M = target: T3, OATP1B1 T345M (Homo sapiens, UniProt Q9Y6L6, T345M); conditions: 20 nmol/l [3H]-ES
T3 sequence (Q9Y6L6 1-691 T345M): T1 sequence (Q9Y6L6 1-691) with T345M

OATP1B1 FS (974insGT) = conditions: 5 nmol/l [3H]-CER; frameshift insertion
SLCO1B1 521T>C = SLCO1B1 521T>C polymorphism; cited from earlier work

Row | Compound | ES transport rate ([1]; 20 nmol/l [3H]-ES) | ES transport rate (OATP1B1 reference) | Decrease in ES transport vs reference (OATP1B1*15) [%] | ES uptake, fraction of reference (OATP1B1 T345M) | Cerivastatin uptake transport rate ([1]; 5 nmol/l [3H]-CER) | Cerivastatin uptake, % of reference (OATP1B1 FS (974insGT)) | Reduction in cerivastatin uptake (SLCO1B1 521T>C) [%]
1 | C[C@]12CC[C@@H]3c4ccc(OS(=O)(=O)O)cc4CC[C@H]3[C@@H]1CCC2=O [ES, [^3H]-Estrone-3-sulfate ammonium salt] | 0.01±0.006 pmol/mg of protein/min | 0.2±0.01 pmol/mg of protein/min | 66 | 0.43±0.07 of reference | – | – | –
2 | COCc1c(C(C)C)nc(C(C)C)c(/C=C/[C@@H](O)C[C@@H](O)CC(=O)O)c1-c1ccc(F)cc1 [cerivastatin, [^3H]-Cerivastatin sodium salt] | – | – | – | – | 0.02±0.01 pmol/mg of protein/min | 3.4 % of reference | 40
